2 compounds from patent publication EP1363614B1, “USE OF 2-AMINO-1-(4-HYDROXY-3-METHANESULPHONAMIDOPHENYL)ETHANOL FOR TREATING URINARY INCONTINENCE” (Boehringer Ingelheim Pharma GmbH & Co. KG, priority 2001, dated 2002) can be followed below.

The test system of data set [1] is dog's femoral artery; carotid artery in the dog. In words: Selectivity in the dog: femoral artery versus carotid artery contraction. It is filed as cell-based. The note with it: difference of percentage contraction of dog's femoral artery at 10^-5 M and percentage contraction of carotid artery at 10^-5 M. On the procedure:
(§1) The efficacy and selectivity of the compound according to the invention is determined as follows, using the same findings as described in 1:
Selectivity in the dog is the difference obtained from the percentage contraction of the dog's femoral artery at 10^-5 M and percentage contraction of the carotid artery in the dog at 10^-5 M.

Another data set relates to human urethra. Description: Efficacy: contraction of human urethra compared with noradrenaline. It is filed as cell-based. The following applies: percentage of contraction compared with noradrenaline. On the procedure: as §1
Maximum contraction in the dog and activity on human urethra are percentages of contraction compared with noradrenaline.

A short description of data set [2]: Metabolism: substrate breakdown by the enzyme CYP2D6. It is filed as in vitro ADME. The note with it: 30 minutes' incubation with CYP2D6; read-out: % Substrate breakdown after 30 minutes' incubation with CYP2D6. On the procedure:
To determine the metabolism the enzyme CYP2D6 was allowed to act on the hydrochloride of the compound 1 according to the formula I (2-amino-1-(4-hydroxy-3-methanesulphonamidophenyl)ethanol). After 30 minutes a check was made to determine how much of the substance had been broken down by the enzyme. (-)-R-2-Amino-1-(2-fluoro-5-methanesulphonamido-phenyl)ethanol 2 was used as a comparison.

Take `CS(=O)(=O)Nc1cc(C(O)CN)ccc1O` (stereo not drawn) [Compound 1, 2-amino-1-(4-hydroxy-3-methanesulphonamidophenyl)ethanol]: the “selectivity in the dog” value in data set [1] is 53. Further, the Emax (usually the greatest response seen or fitted, relative to the assay's reference) with human urethra stood at 120%. Moreover, the metabolised at 0.5 h in data set [2] came out at 1.4%.

With `CS(=O)(=O)Nc1ccc(F)c([C@@H](O)CN)c1` [Compound 2, (-)-R-2-Amino-1-(2-fluoro-5-methanesulphonamido-phenyl)ethanol], the “selectivity in the dog” value in data set [1] stood at 40. In the data set with human urethra, this compound yielded an Emax of 48%. Moreover, the metabolised at 0.5 h in data set [2] was 2.1%.
